{
  "source": "patent US20250206779A1",
  "about": "“ANGIOTENSIN-(1-9) ANALOGUE BASED ON D AMINO ACIDS, PHARMACEUTICAL COMPOSITIONS AND USES THEREOF” (UNIVERSIDAD DE CHILE, priority 2021, published 2025)",
  "key": {"[1]": {"test": "Stability in human serum determined by HPLC", "format": "in vitro ADME", "conditions": "37° C.", "description": "The retro-inverse peptides were dissolved in PBS to obtain a final concentration of 1 mM. From this stock, an aliquot of 50 μL was taken and diluted to 450 μL of human serum (Sigma Aldrich from human male AB plasma, USA origin, sterile-filtered) at 37° C. under agitation, to obtain an initial concentration of […] and incubated for 48 h. Aliquots of 50 μL were extracted at 0, 5, 10 min and 1, 3, 6, 24 and 48 h and added to 200 μL of methanol at 4° C. for 30 min to precipitate serum proteins. The samples were then centrifuged at 13,000 g in Hermle Cooling Centrifuge Z 326 K 311.00 V01 at 4° C. for 30 min. The supernatants (approximately 200 μL) were obtained, placed in vials, and then analyzed by HPLC. All analyzes were performed on the Perkin Elmer auto sampler flexo HPLC, using a reverse phase 4.6×100 mm column with a particle size of […] (Waters XBridge Peptide BEH C18 Column). Mobile phase A was 100% acetonitrile and phase B was TFA 0.0004% in Milli-Q water. The initial composition of eluent was 5% A and 95% B for 1 min and then a linear gradient to reach 100% A in 19 min and then return to the initial composition in 4 min, with a total run time of 25 min. The eluent flow was 0.9 mL/min and the temperature of the column was adjusted to 26° C. L measurement was performed at a UV signal of 220 nm wavelength. Where 50 μL was injected per sample. Peptides were identified based on their retention time in the respective chromatogram obtained in the Chromera-HPLC flexar program."}, "[2]": {"test_system": "adult rat cardiac fibroblasts", "test": "Cardiac fibroblast proliferation, cell count in Neubauer chamber", "format": "cell-based", "conditions": "DMEM F-12 5% FBS, 24 h, trypan blue cell count", "description": "Male Sprague-Dawley rats (250-300 g) were anesthetized with ketamine-xylazine (66 and 1.6 mg/kg i.p., respectively). Adult rat cardiac fibroblasts were isolated by retrograde aortic perfusion. Briefly, hearts were digested with collagenase type B solution for 1 h, and cells were centrifuged at 500 rpm for 2 min. The supernatant, mainly adult rat cardiac fibroblasts, was centrifuged at 1000 rpm for 10 min, resuspended in Dulbecco's Modified Eagle Medium: Nutrient Mixture F-12 (DMEM F-12) plus 15% fetal bovine serum (FBS) and then seeded in nontreated culture dishes during 3 h. Cells were washed with phosphate buffered saline to eliminate debris and nonadherent cells. Adult rat cardiac fibroblasts were used at passage one and seeded on 60 mm cell culture dishes in DMEM F-12 plus 10% FBS and incubated at […] for 3 h. To synchronize cells, they were washed and incubated in DMEM F-12 (without serum, 0% FBS) for 24 h before experimentation. Cell proliferation was determined in cardiac fibroblasts incubated for 24 h with and without retro-inverse angiotensin-(1-9) in DMEM F-12 5% FBS. Cells were trypsinized and cell number was determined using trypan blue method in a Neubauer chamber."}, "[3]": {"test_system": "cardiac myocytes isolated from neonatal Sprague-Dawley rat ventricles", "test": "Norepinephrine-induced cardiomyocyte hypertrophy, western blot of β-MHC and ANP", "format": "cell-based", "conditions": "1, 10 or 100 μM peptide, 10 μM norepinephrine", "description": "Cardiac myocytes were isolated from neonatal Sprague-Dawley rat ventricles. Cardiac myocytes were plated at 70% final density in gelatin-coated wells (12-well plates) or in 60-mm Petri dishes and maintained at 37° C. in a humidified atmosphere of 5% CO2/95% air for 24 h in Dulbecco's Modified Eagle's medium [(DMEM)/M199](4:1) containing 10% fetal bovine serum and 5% fetal calf serum. Serum was withdrawn 24 h before preincubation with 1, 10 or 100 μM retro-inverse angiotensin-(1-9) for 1 h; then, 10 μM norepinephrine (Sigma, St Louis, Missouri, USA) were added and the cultures were incubated for 24 h. Then cells were washed with PBS at 4° C. and then cells were lysed with 50 μL of RIPA lysis buffer (Tris-HCl 10 mM pH 7.4, EDTA 5 mM, NaCl 50 mM, deoxycholic acid 1%, Triton X-100 1% v/v) supplemented with phosphatase and protease inhibitors (Roche). After centrifugation at 12,000 r.p.m. for 15 min at 4° C., the supernatat was recovered; total protein content was determined by using Bradford (BioRad protein assay, BioRad, Hercules, CA, USA). Proteins were denatured in SDS-PAGE 4× buffer and resolved in 12% PAGE-SDS. After electrotransference, beta-myosin heavy chain (β-MHC) and atrial natriuretic peptide (ANP) were used as hypertrophic markers. β-tubulin was used as loading control. As expected, norepinephrine 10 μM for […], a cardiomyocyte hypertrophy inducer, triggered β-MHC and ANP increase (FIG. 3)."}},
  "note": "Where a SMILES comes first, the peptide text is derived from it. Where no end group is shown, it is not given here. [ ]: non-standard residue; d: D form.",
  "data": [
    {"compound": "DRVYIHPFH [angiotensin-(1-9), Asp-Arg-Val-Tyr-Ile-His-Pro-Phe-His]", "values": [
      {"measurement": "degradation after incubation with human serum", "setting": "[1]; 3 h incubation", "result": "completely degraded"}
    ]},
    {"compound": "O=c1[nH]c(=O)n([C@H]2C[C@H](O)[C@@H](CO)O2)cc1Br", "note": "[bromodeoxyuridine, reference compound]", "values": [
      {"measurement": "fibroblast proliferation", "setting": "[2]", "result": "comparable to bromodeoxyuridine"}
    ]},
    {"compound": "CC[C@@H](C)[C@@H](NC(=O)[C@@H](Cc1c[nH]cn1)NC(=O)[C@H]1CCCN1C(=O)[C@@H](Cc1ccccc1)NC(=O)[C@H](N)Cc1c[nH]cn1)C(=O)N[C@H](Cc1ccc(O)cc1)C(=O)N[C@@H](C(=O)N[C@H](CCCNC(=N)N)C(=O)N[C@H](CC(=O)O)C(N)=O)C(C)C", "note": "[retro-inverse angiotensin-(1-9) amide, ^DH^DF^DP^DH^DI^DY^DV^DR^DD-CONH2] (H-[dH][dF][dP][dH][dI][dY][dV][dR][dD]-NH2)", "values": [
      {"measurement": "degradation after incubation with human serum", "setting": "[1]; 24 h incubation", "result": "no significant degradation"},
      {"measurement": "increase of ANP induced by norepinephrine", "setting": "[3]", "result": "blocked"}
    ]}
  ]
}
